Like-named read-outs stand apart in the source and are kept apart here. Where a SMILES comes first, the peptide text is derived from it. Bridges are numbered along the chain shown (N, C = ends). [ ]: non-standard residue; d: D form. The star is where a group is joined. pGlu = O=C1CC[C@@H](C(=O)O)N1; NHPhenethyl = c1ccc(CCN*)cc1; d(hCys) = N[C@H](CCS)C(=O)O; dNle = CCCC[C@@H](N)C(=O)O; dNva = CCC[C@@H](N)C(=O)O; hCys = N[C@@H](CCS)C(=O)O; Nle = CCCC[C@H](N)C(=O)O
Assay: Surrogate Activity-Based Plasma Stability Assay
Assay type: in vitro ADME
Settings: rat
Text: Surrogate Activity-Based Plasma Stability Assay:
2) Calculate slope of value above and […]

In the case of `CCCC[C@@H](NC(=O)[C@@H]1CCCN1C(=O)CNC(=O)[C@H](CCCCN)NC(=O)[C@@H]1CCSSC[C@@H](NC(C)=O)C(=O)N[C@@H](CCCNC(=N)N)C(=O)N2CCC[C@H]2C(=O)N[C@@H](CCCNC(=N)N)C(=O)N[C@@H](CC(C)C)C(=O)N[C@@H](CO)C(=O)N1)C(=O)N[C@H](C)C(=O)N[C@H](Cc1ccccc1)C(=O)O` [Example 19, Ac-c-R-P-R-L-S-(hC)-K-G-P-(D-Nle)-a-f-OH] (Ac-[dC]RPRLS[hCys]KGP[dNle][dA][dF]-OH; disulfide 1-7 (inferred)), the half-life is reported as 50 min.

With `CC(=O)N[C@@H]1CCSSCC[C@@H](C(=O)N[C@@H](CCCCN)C(=O)NCC(=O)N2CCC[C@H]2C(=O)N[C@H](Cc2ccccc2)C(=O)N[C@H](C)C(=O)N[C@H](Cc2ccccc2)C(=O)O)NC(=O)[C@H](CO)NC(=O)[C@H](CC(C)C)NC(=O)[C@H](CCCNC(=N)N)NC(=O)[C@@H]2CCCN2C(=O)[C@H](CCCNC(=N)N)NC1=O` [Example 18, Ac-(D-hC)*-R-P-R-L-S-(hC)*-K-G-P-f-a-f-OH] (Ac-[d(hCys)]RPRLS[hCys]KGP[dF][dA][dF]-OH; disulfide 1-7) the half-life was 50 min.

With `CCCC[C@H](NC(=O)[C@@H]1CCCN1C(=O)CNC(=O)[C@H](CCCCN)NC(=O)[C@@H]1CCSSCC[C@H](NC(C)=O)C(=O)N[C@@H](CCCNC(=N)N)C(=O)N2CCC[C@H]2C(=O)N[C@@H](CCCNC(=N)N)C(=O)N[C@@H](CC(C)C)C(=O)N[C@@H](CO)C(=O)N1)C(=O)N1CCC[C@H]1C(=O)N[C@@H](Cc1ccccc1)C(=O)O` [Example 7, Ac-hC*-R-P-R-L-S-hC*-K-G-P-Nle-P-F-OH] (Ac-[hCys]RPRLS[hCys]KGP[Nle]PF-OH; disulfide 1-7) the half-life was 9 min.

Work on `CCCC[C@H](NC(=O)[C@@H]1CCCN1C(=O)CNC(=O)[C@H](CCCCN)NC(=O)[C@H]1CCSSCC[C@@H](NC(C)=O)C(=O)N[C@@H](CCCNC(=N)N)C(=O)N2CCC[C@H]2C(=O)N[C@@H](CCCNC(=N)N)C(=O)N[C@@H](CC(C)C)C(=O)N[C@@H](CO)C(=O)N1)C(=O)N1CCC[C@H]1C(=O)N[C@@H](Cc1ccccc1)C(=O)O` [Example 17, Ac-(D-hC)*-R-P-R-L-S-(D-hC)*-K-G-P-Nle-P-F-OH] (Ac-[d(hCys)]RPRLS[d(hCys)]KGP[Nle]PF-OH; disulfide 1-7) yielded a half-life of 11.4 min.

Molecule `CCCC[C@H](NC(=O)[C@@H]1CCCN1C(=O)CNC(=O)[C@H](CCCCN)NC(=O)[C@@H]1CSSC[C@H](NC(C)=O)C(=O)N[C@@H](CCCNC(=N)N)C(=O)N2CCC[C@H]2C(=O)N[C@@H](CCCNC(=N)N)C(=O)N[C@@H](CC(C)C)C(=O)N[C@@H](CO)C(=O)N1)C(=O)NCCc1ccccc1` [Example 11, Ac-C*-R-P-R-L-S-C*-K-G-P-Nle-NH(Phenethyl)] (Ac-CRPRLSCKGP[Nle]-NHPhenethyl; disulfide 1-7) has a half-life of 32.8 min.

With `CCCC[C@@H](NC(=O)[C@@H]1CCCN1C(=O)CNC(=O)[C@H](CCCCN)NC(=O)[C@@H]1CSSC[C@H](NC(=O)[C@@H]2CCCN2C(=O)[C@H](CCCNC(=N)N)NC(=O)[C@@H]2CCC(=O)N2)C(=O)N[C@@H](CC(C)C)C(=O)N[C@@H](CO)C(=O)N1)C(=O)N[C@H](C)C(=O)N[C@H](Cc1ccccc1)C(=O)O` [Example 33, pE-R-P-C*-L-S-C*-K-G-P-(D-Nle)-a-f-OH] ([pGlu]RPCLSCKGP[dNle][dA][dF]-OH; disulfide 4-7) the half-life was over 1000 min.

`C=CCCCCCCCCCC(CCCCCCCCCCC(=O)O)(C(=O)O)C(=O)NCCOCCOCCOCCOCCOCCOCCOCCOCCOCCOCCOCCOCCOCCOCCOCCOCCOCCOCCOCCOCCOCCOCCOCCn1nnc2c1CC[C@H]1[C@@H](CC2)[C@H]1COC(=O)NCCCC[C@H](NC(=O)[C@@H]1CSSC[C@H](NC(=O)[C@@H]2CCCN2C(=O)[C@H](CCCNC(=N)N)NC(=O)[C@@H]2CCC(=O)N2)C(=O)N[C@@H](CC(C)C)C(=O)N[C@@H](CO)C(=O)N1)C(=O)NCC(=O)N1CCC[C@H]1C(=O)N[C@H](CCCC)C(=O)NCCc1ccccc1` (some centres unmarked) [Example 40] gave a half-life (read-out: Surrogate activity-based Plasma stability t½) of over 1000 min.

`CCCC[C@@H](NC(=O)[C@@H]1CCCN1C(=O)CNC(=O)[C@H](CCCCN)NC(=O)[C@@H]1CCSSCC[C@@H](NC(=O)[C@@H]2CCCN2C(=O)[C@H](CCCNC(=N)N)NC(=O)[C@@H]2CCC(=O)N2)C(=O)N[C@@H](CC(C)C)C(=O)N[C@@H](CO)C(=O)N1)C(=O)N[C@H](CCC)C(=O)N[C@H](Cc1ccccc1)C(=O)O` [Example 38, pE-R-P-(D-hC)*-L-S-hC*-K-G-P-(D-Nle)-(D-Nva)-f-OH] ([pGlu]RP[d(hCys)]LS[hCys]KGP[dNle][dNva][dF]-OH; disulfide 4-7) showed a half-life of 41 min.

For `CCCC[C@@H](NC(=O)[C@@H]1CCCN1C(=O)[C@@H](C)NC(=O)[C@H](CCCCN)NC(=O)[C@@H]1CSSC[C@H](NC(=O)[C@H](CCCNC(=N)N)NC(=O)[C@@H]2CCC(=O)N2)C(=O)N[C@@H](CCCNC(=N)N)C(=O)N[C@@H](CC(C)C)C(=O)N[C@@H](CO)C(=O)N1)C(=O)N[C@H](C)C(=O)N[C@H](Cc1ccccc1)C(=O)O` [Example 23, pE-R-C*-R-L-S-C*-K-a-P-(D-Nle)-a-f-OH] ([pGlu]RCRLSCK[dA]P[dNle][dA][dF]-OH; disulfide 3-7), the half-life was 3160 min.

Molecule `CC(C)C[C@@H]1NC(=O)[C@H](CCCNC(=N)N)NC(=O)[C@@H](NC(=O)[C@H](CCCNC(=N)N)NC(=O)[C@@H]2CCC(=O)N2)CSSCC[C@H](C(=O)N[C@@H](CCCCN)C(=O)NCC(=O)N2CCC[C@H]2C(=O)N[C@H](Cc2ccccc2)C(=O)N[C@H](C)C(=O)N[C@H](Cc2ccccc2)C(=O)O)NC(=O)[C@H](CO)NC1=O` [Example 26, pE-R-C*-R-L-S-(D-hC)*-K-G-P-f-a-f-OH] ([pGlu]RCRLS[d(hCys)]KGP[dF][dA][dF]-OH; disulfide 3-7) has a half-life of 52 min.

Work on `CCCC[C@@H](NC(=O)[C@@H]1CCCN1C(=O)CNC(=O)[C@H](CCCCN)NC(=O)[C@@H]1CSSC[C@H](NC(=O)[C@@H]2CCCN2C(=O)[C@H](CCCNC(=N)N)NC(=O)[C@@H]2CCC(=O)N2)C(=O)N[C@@H](CC(C)C)C(=O)N[C@@H](CO)C(=O)N1)C(=O)N[C@H](Cc1ccccc1)C(=O)O` [Example 34, pE-R-P-C*-L-S-C*-K-G-P-(D-Nle)-f-OH] ([pGlu]RPCLSCKGP[dNle][dF]-OH; disulfide 4-7) yielded a half-life of over 1000 min.

With `CCCC[C@H](NC(=O)[C@@H]1CCCN1C(=O)CNC(=O)[C@H](CCCCN)NC(=O)[C@@H]1CSSC[C@H](NC(C)=O)C(=O)N[C@@H](CCCNC(=N)N)C(=O)N2CCC[C@H]2C(=O)N[C@@H](CCCNC(=N)N)C(=O)N[C@@H](CC(C)C)C(=O)N[C@@H](CO)C(=O)N1)C(=O)N1CCC[C@H]1C(=O)N[C@@H](Cc1ccccc1)C(=O)O` [Example 1, Ac-C*-R-P-R-L-S-C*-K-G-P-Nle-P-F-OH] (Ac-CRPRLSCKGP[Nle]PF-OH; disulfide 1-7) the half-life was 8 min.

For `CCCC[C@H](NC(=O)[C@@H]1CCCN1C(=O)CNC(=O)[C@H](CCCCN)NC(=O)[C@@H]1CSSC[C@H](NC(=O)[C@@H]2CCCN2C(=O)[C@H](CCCNC(=N)N)NC(=O)[C@@H]2CCC(=O)N2)C(=O)N[C@@H](CC(C)C)C(=O)N[C@@H](CO)C(=O)N1)C(=O)N1CCC[C@H]1C(=O)NCCc1ccccc1` [Example 30, pE-R-P-C*-L-S-C*-K-G-P-Nle-P-NH(Phenethyl)], the half-life was 661 min.

Work on `CCCC[C@H](NC(=O)[C@@H]1CCCN1C(=O)CNC(=O)[C@H](CCCCN)NC(=O)[C@@H]1CSSC[C@H](NC(=O)[C@H](CCCNC(=N)N)NC(=O)[C@@H]2CCC(=O)N2)C(=O)N[C@@H](CCCNC(=N)N)C(=O)N[C@@H](CC(C)C)C(=O)N[C@@H](CO)C(=O)N1)C(=O)N1CCC[C@H]1C(=O)N[C@@H](Cc1ccccc1)C(=O)O` [Example 20, pE-R-C*-R-L-S-C*-K-G-P-Nle-P-F-OH] ([pGlu]RCRLSCKGP[Nle]PF-OH; disulfide 3-7) yielded a half-life of 11.9 min.
